Measurements published in patent publication US6503881B2 (priority 1996, dated 2003).
Where two headings read alike, the source gives them in different places.

Experiments:
[1] = system: E. faecalis; format: cell-based; settings: for MBI 26 MIC, +Teicoplanin: in combination with teicoplanin; for MIC in combination: Teicoplanin + MBI 26
[2] = system: A. calcoaceticus; experiment: Overcoming inherent resistance, MIC alone and in combination (agarose dilution); format: cell-based; settings: A. calcoaceticus AC001
[3] = system: inherently resistant microorganisms; settings: for MBI 26 MIC +Vancomycin: Teicoplanin table; for MIC in combination: Vancomycin +MBI 26
[4] = system: microorganisms with acquired resistance

**Q.** What does the source list for “KWKSFIKKLTSAAKKVVTTAKPLISS [MBI 26]”?
**A.** MIC Alone ([1]; E. faecalis 97042 VanB, agent alone): 64 µg/mL; MBI 26 MIC, +Teicoplanin ([1]; E. faecalis 97042 VanB): 8 µg/mL; MIC Alone ([1]; E. faecalis 97043 VanB, agent alone): 64 µg/mL; MBI 26 MIC, +Teicoplanin ([1]; E. faecalis 97043 VanB): 8 µg/mL; MIC Alone ([1]; E. faecalis 97050 VanA): 64 µg/mL; MIC in combination ([1]; E. faecalis 97050 VanA): 8 µg/mL; MIC Alone ([1]; E. faecalis 97051 VanA): 64 µg/mL; MIC in combination ([1]; E. faecalis 97051 VanA): 8 µg/mL; MIC Alone ([1]; E. faecalis 97052 VanA): 64 µg/mL; MIC in combination ([1]; E. faecalis 97052 VanA): 8 µg/mL; MIC Alone ([1]; E. faecalis 97053 VanA): 64 µg/mL; MIC in combination ([1]; E. faecalis 97053 VanA): 8 µg/mL; MIC Alone ([1]; E. faecalis 97054 VanA): 64 µg/mL; MIC in combination ([1]; E. faecalis 97054 VanA): 8 µg/mL; MIC Alone ([1]; E. faecalis 97055 VanA): 64 µg/mL; MIC in combination ([1]; E. faecalis 97055 VanA): 8 µg/mL; MIC Alone ([2]; agent alone): 16 µg/mL; MBI 26 MIC, +Erythro. ([2]; in combination with erythromycin): 8 µg/mL; MBI 26 MIC +Vancomycin ([3]; E. casseliflavus 97056 VanC): 2 µg/mL; MIC in combination ([3]; E. casseliflavus 97056 VanC): 1 µg/mL; MIC Alone ([3]; E. casseliflavus 97056 VanC, pair Teicoplanin / MBI 26): 64 µg/mL; MIC Alone ([3]; E. casseliflavus 97056 VanC, pair Vancomycin / MBI 26): 8 µg/mL; MBI 26 MIC +Vancomycin ([3]; E. casseliflavus 97057 VanC): 0.5 µg/mL; MIC in combination ([3]; E. casseliflavus 97057 VanC): 0.5 µg/mL; MIC Alone ([3]; E. casseliflavus 97057 VanC, pair Teicoplanin / MBI 26): 64 µg/mL; MIC Alone ([3]; E. casseliflavus 97057 VanC, pair Vancomycin / MBI 26): 2 µg/mL; MBI 26 MIC +Vancomycin ([3]; E. casseliflavus 97058 VanC): 0.5 µg/mL; MIC in combination ([3]; E. casseliflavus 97058 VanC): 0.25 µg/mL; MIC Alone ([3]; E. casseliflavus 97058 VanC, pair Teicoplanin / MBI 26): 32 µg/mL; MIC Alone ([3]; E. casseliflavus 97058 VanC, pair Vancomycin / MBI 26): 4 µg/mL; MBI 26 MIC +Vancomycin ([3]; E. casseliflavus 97059 VanC): 1 µg/mL; MIC in combination ([3]; E. casseliflavus 97059 VanC): 0.5 µg/mL; MIC Alone ([3]; E. casseliflavus 97059 VanC, pair Teicoplanin / MBI 26): 64 µg/mL; MIC Alone ([3]; E. casseliflavus 97059 VanC, pair Vancomycin / MBI 26): 32 µg/mL; MBI 26 MIC +Vancomycin ([3]; E. casseliflavus 97060 VanC): 1 µg/mL; MIC in combination ([3]; E. casseliflavus 97060 VanC): 0.25 µg/mL; MIC Alone ([3]; E. casseliflavus 97060 VanC, pair Teicoplanin / MBI 26): 64 µg/mL; MIC Alone ([3]; E. casseliflavus 97060 VanC, pair Vancomycin / MBI 26): 0.5 µg/mL; MBI 26 MIC +Vancomycin ([3]; E. gallinarum 97044 VanC): 1 µg/mL; MIC in combination ([3]; E. gallinarum 97044 VanC): 0.5 µg/mL; MIC Alone ([3]; E. gallinarum 97044 VanC, pair Teicoplanin / MBI 26): 64 µg/mL; MIC Alone ([3]; E. gallinarum 97044 VanC, pair Vancomycin / MBI 26): 8 µg/mL; MBI 26 MIC +Vancomycin ([3]; E. gallinarum 97046 VanC): 1 µg/mL; MIC in combination ([3]; E. gallinarum 97046 VanC): 4 µg/mL; MIC Alone ([3]; E. gallinarum 97046 VanC, pair Teicoplanin / MBI 26): 8 µg/mL; MIC Alone ([3]; E. gallinarum 97046 VanC, pair Vancomycin / MBI 26): 2 µg/mL; MBI 26 MIC +Vancomycin ([3]; E. gallinarum 97047 VanC): 32 µg/mL; MIC in combination ([3]; E. gallinarum 97047 VanC): 8 µg/mL; MIC Alone ([3]; E. gallinarum 97047 VanC, pair Teicoplanin / MBI 26): 64 µg/mL; MIC Alone ([3]; E. gallinarum 97047 VanC, pair Vancomycin / MBI 26): 64 µg/mL; MBI 26 MIC +Vancomycin ([3]; E. gallinarum 97048 VanC): 1 µg/mL; MIC in combination ([3]; E. gallinarum 97048 VanC): 2 µg/mL; MIC Alone ([3]; E. gallinarum 97048 VanC, pair Teicoplanin / MBI 26): 8 µg/mL; MIC Alone ([3]; E. gallinarum 97048 VanC, pair Vancomycin / MBI 26): 2 µg/mL; MBI 26 MIC +Vancomycin ([3]; E. gallinarum 97049 VanC): 32 µg/mL; MIC in combination ([3]; E. gallinarum 97049 VanC): 16 µg/mL; MIC Alone ([3]; E. gallinarum 97049 VanC, pair Teicoplanin / MBI 26): 64 µg/mL; MIC Alone ([3]; E. gallinarum 97049 VanC, pair Vancomycin / MBI 26): 64 µg/mL; Peptide MIC ([4]; S. aureus SA7609, pair Erythromycin / MBI 26): 1 µg/mL; Peptide MIC ([4]; S. aureus SA7795, pair Erythromycin / MBI 26): 8 µg/mL; Peptide MIC ([4]; S. aureus SA7796, pair Erythromycin / MBI 26): 2 µg/mL; Peptide MIC ([4]; S. aureus SA7818, pair Methicillin / MBI 26): 2 µg/mL; Peptide MIC ([4]; S. aureus SA7835, pair Erythromycin / MBI 26): 2 µg/mL; Peptide MIC ([4]; S. aureus SA7835, pair Methicillin / MBI 26): 16 µg/mL; Peptide MIC ([4]; S. epidermidis SE8403, pair Erythromycin / MBI 26): 2 µg/mL; Peptide MIC ([4]; S. epidermidis SE8410, pair Erythromycin / MBI 26): 1 µg/mL; Peptide MIC ([4]; S. epidermidis SE8411, pair Erythromycin / MBI 26): 1 µg/mL; Peptide MIC ([4]; S. epidermidis SE8497, pair Clindamycin / MBI 26): 2 µg/mL; Peptide MIC ([4]; S. epidermidis SE8497, pair Erythromycin / MBI 26): 1 µg/mL; Peptide MIC ([4]; S. epidermidis SE8503, pair Erythromycin / MBI 26): 1 µg/mL; Peptide MIC ([4]; S. epidermidis SE8565, pair Erythromycin / MBI 26): 1 µg/mL; Peptide MIC ([4]; S. haemolyticus SH8472, pair Ampicillin / MBI 26): 16 µg/mL; Peptide MIC ([4]; S. haemolyticus SH8563, pair Methicillin / MBI 26): 2 µg/mL; Peptide MIC ([4]; S. haemolyticus SH8575, pair Ampicillin / MBI 26): 8 µg/mL; Peptide MIC ([4]; S. haemolyticus SH8578, pair Erythromycin / MBI 26): 0.1 µg/mL; Peptide MIC ([4]; S. haemolyticus SH8597, pair Clindamycin / MBI 26): 1 µg/mL
